This is an account of results in patent US9701716B2, “Water buffalo derived dimeric peptide containing proline for antibiotic therapies” (Centaur, Inc., priority 2014, dated 2017).

Like-named read-outs stand apart in the source and are kept apart here. No end group written: not given here.

Test [1] deals with Staphylococcus aureus. The test is classed as cell-based. The procedure:
Additional antimicrobial agents were evaluated for antimicrobial activity, including 23 computationally-derived analogues of SEQ ID NO: 3. These analogues were grouped into two functional series, including those synthesized for improved helicity (Table 2; A-P) and those synthesized for enhanced activity (Table 2; IND, Q-T, and W-X). The antimicrobial activity of the synthetic analogues provided in Table 2 were evaluated using standard techniques such as those described in Sang, et al. 2007 Dev. Comp. Immunol., and herein incorporated by reference. […] The additional antimicrobial agent analogs optimized for helical stability in Example 2 (Table 3) were evaluated for antimicrobial activity. The antimicrobial activity of the synthetic analogues provided in Table 3 were evaluated using standard techniques such as those described in Sang, et al. 2007 Dev. Comp. Immunol., and herein incorporated by reference.

For test [2], the system named is Staphylococcus aureus. The test is classed as cell-based. The protocol: (§1) The antimicrobial agents disclosed are derivatives of SEQ. ID. NO.: 3, having 14 amino acids and a broad spectrum of antimicrobial activity. The antimicrobial agents of the disclosure were synthesized and analyzed to evaluate antimicrobial activity. Initially, the antimicrobial agent of SEQ ID NO.: 3 was evaluated for inhibition of clinical isolates of common mastitis pathogens (Table 1).
(§2) The additional antimicrobial agent analogs optimized for helical stability in Example 2 (Table 3) were evaluated for antimicrobial activity. The antimicrobial activity of the synthetic analogues provided in Table 3 were evaluated using standard techniques such as those described in Sang, et al. 2007 Dev. Comp. Immunol., and herein incorporated by reference.
(§3) The antimicrobial activity of SEQ ID NO. 8 was further evaluated against clinical isolates of mastitis-causing bacteria (Table 5).
This is another data set of the same source.

In the next test the test system is Klebsiella pneumoniae. It is filed as cell-based. The procedure:
as §1, §2, §3

The subject of test [3] is Streptococcus dysgalactiae. It is filed as cell-based. The procedure:
as §1, §2, §3

For another test, the system named is Escherichia coli. The test is classed as cell-based. The procedure: as §2, §3
In test [4] the test system is Staphylococcus aureus. Nature of the test: Mastitis mouse model, CFU in mammary glands. The test is classed as in vivo, Balb/c mice. The following applies: 32 μg per gland intra-mammarily, every 24 hrs for 3 days from 24 hours post-infection; Kruskal-Wallis with Dunn's post-test, 5% level of significance. The protocol: The antimicrobial agent of SEQ ID NO: 8 was evaluated using an in vivo model of bacterial infection to assess the antimicrobial activity of the agent. The following methods and materials were used.
Staphylococcus aureus was isolated from milk from dairy cows with clinical mastitis (Livestock Disease Diagnostic Center, University of Kentucky. Lexington, Ky.). Upon arrival, bacteria were striped on blood agar plates (TSA+5% sheep blood from Remel, Kansas City. Mo.) and cultured at 37° C. for 24 hrs. A fresh single bacterial colony picked from the agar plate was inoculated into 10 ml of Muller Hinton II broth (MHB) and cultured at 37° C. for 4-6 hrs. until reaching an absorbance of 0.8 with a 625 nm spectrophotometer filter. At this absorbance, the MHB has been documented to contain 1×10^5 colony forming units (CFU) in a 50 μl volume.
For the experiment, 56 female Balb/c mice (BW˜[…]) at 7-10 days of lactation were used. Four groups of n=14 mice were used for each experiment as described below. For intramammary inoculation the protocol described by Chandler was followed (J. Med. Microbiol. V3; 273-282: 1970) with minor modifications. […]
All mice were euthanized (using CO2) following the AVMA euthanasia guidelines 24 hours after the last treatment. […] Dilutions (10^−1, 10^−2, and 10^−3) of the homogenates were plated quantitatively to determine the number of CFU per gland. […]

The subject of the next test is Corynebacterium species. Nature of the test: MIC against clinical isolates of mastitis pathogens. The test is classed as cell-based. The conditions noted are these: clinical isolate 404-C18, Corynebacterium species, multidrug resistance ++. The procedure: as §1, §2, §3
Setting [5] is: Staphylococcus aureus, first duplicate.
[6] abbreviates: Staphylococcus aureus, second duplicate.

Consider “GLARILLRLLFFRG [WB14-F1, GLARILLRLLFFRG]”, for which the MIC duplicates with Staphylococcus aureus [1] was 8.0,8.0 μg/ml.

In the case of “GLARILLRLLFRFG (Antimicrobial peptide sequence) [WB14-N1, antimicrobial agent optimized for helical stability]”, the MIC duplicates in the test on Staphylococcus aureus [1] (setting [5]) and in the test on Staphylococcus aureus [1] (setting [6]) was 128,128 μg/ml in each case.

As to GLARILLRWLFRFG [WB14-N, GLARILLRWLFRFG], the MIC duplicates against Staphylococcus aureus [1] is listed as 4.0,4.0 μg/ml.

On to GLPWILLRWLFFRG [WB14-A, GLPWILLRWLFFRG], for which the values for the MIC (in the test on Staphylococcus aureus [2]; in the test with Klebsiella pneumoniae; in test [3]) were 25.0 µM, 25.0 µM and 12.5 µM, respectively.

For the substance “GLTRILLRLLLRFG (Antimicrobial peptide sequence) [WB14-O4, antimicrobial agent optimized for helical stability]”, the MIC duplicates with Staphylococcus aureus [1] (setting [5]) and in the test with Staphylococcus aureus [1] (setting [6]) was 256,256 μg/ml in each case.

For the substance “GLVRILLRLLFRFG (Antimicrobial peptide sequence) [WB14-O1, antimicrobial agent optimized for helical stability]”, the MIC duplicates against Staphylococcus aureus [1] (setting [5]) came to 64 µg/mL; with Staphylococcus aureus [1] (setting [6]), 128 µg/mL.

As to “GLVRILLRLLLRFG (Antimicrobial peptide sequence) [WB14-O2, antimicrobial agent optimized for helical stability]”, the MIC duplicates against Staphylococcus aureus [1] (setting [5]) worked out at 256 µg/mL; in the test with Staphylococcus aureus [1] (setting [6]), 128 µg/mL.

“GLVRILLRLLLRFS [WB14-O6, GLVRILLRLLLRFS]”: the MIC duplicates in the test on Staphylococcus aureus [1] was >256, >256 μg/ml.

As for “GLVRILLRLLLRYG (Antimicrobial peptide sequence) [WB14-O5, antimicrobial agent optimized for helical stability]”, the MIC duplicates with Staphylococcus aureus [1] (setting [5]) came to 64 µg/mL; with Staphylococcus aureus [1] (setting [6]), 128 µg/mL.

Regarding “H-GLARILLRWLFFRG-OH [WB14-F, GLARILLRWLFFRG]”, the minimum inhibitory concentration (MIC) – broadly, the smallest concentration in the dilution series that meets the test's criterion for growth inhibition – was 16.0 µg/mL in the test with Klebsiella pneumoniae, 8.0 µg/mL in test [3], 4.0 µg/mL against Escherichia coli and 16.0 µg/mL against Corynebacterium species. For the same substance, the “antimicrobial activity compared with other peptides (in words)” value in the test on Staphylococcus aureus [1] (Staphylococcus aureus MIC comparison) is recorded as “most efficacious antimicrobial synthetic peptide”. For the same substance, the “colony forming units (CFU) per mammary gland versus control groups” value in the test on Staphylococcus aureus [4] is given as “a difference between the WB-14F versus the three control groups”.

On to “SLVRILLRLLLRFG (Antimicrobial peptide sequence) [WB14-O3, antimicrobial agent optimized for helical stability]”, for which the MIC duplicates against Staphylococcus aureus [1] (setting [5]) and against Staphylococcus aureus [1] (setting [6]) was 128,128 μg/ml throughout.
